# Measurements from patent publication US20250297244A1, “COMPOSITIONS AND METHODS FOR THE DIAGNOSIS AND TREATMENT OF SEVERE COVID 19 AND OTHER IN[…]” (THE CHILDREN'S HOSPITAL OF PHILADELPHIA, priority 2022, published 2025).
# “Also recorded” adds a separate entry of the source.
# Tests used:
# murine Th2 cells = assay: IL-4 production by murine Th2 cells after in vitro activation; format: cell-based; conditions: low doses; anti-CD3+anti-CD28 beads for 6 hours
# Method: (§1) FIGS. 14A-14B. Dose-dependent effect of lometrexol on IFNg production by murine Th1 cells (FIG. 14A) and IL-4 production by murine Th2 cells (FIG. 14B) following in vitro activation with anti-CD3+anti-CD28 beads for 6 hours.
# murine Th1 cells = assay: IFNg production by murine Th1 cells after in vitro activation; format: cell-based; conditions: low doses; anti-CD3+anti-CD28 beads for 6 hours
# Method: as §1
# human CD4+ T cells = assay: proliferation of activated human CD4+ T cells (anti-CD3+anti-CD28 beads, CFSE flow cytometry); format: cell-based; conditions: activated in vitro for 72 hours with anti-CD3+anti-CD28 beads
# Method: FIG. 13. […] Human CD4+ T cells were activated in vitro for 72 hours using anti-CD3+anti-CD28 beads, and cell division was monitored by flow cytometry using CFSE, and the number of daughter cells generated was determined.
# [1] = test system: human tonsillar organoids; assay: in vitro human tonsillar organoid model of T cell-dependent germinal center B cell differentiation; format: cell-based
# [2] = molecular target: thymidylate synthase (TS) (Homo sapiens, UniProt P04818); conditions: in vitro studies; cited from earlier work
# thymidylate synthase (TS), sequence (P04818 whole entry, species assumed): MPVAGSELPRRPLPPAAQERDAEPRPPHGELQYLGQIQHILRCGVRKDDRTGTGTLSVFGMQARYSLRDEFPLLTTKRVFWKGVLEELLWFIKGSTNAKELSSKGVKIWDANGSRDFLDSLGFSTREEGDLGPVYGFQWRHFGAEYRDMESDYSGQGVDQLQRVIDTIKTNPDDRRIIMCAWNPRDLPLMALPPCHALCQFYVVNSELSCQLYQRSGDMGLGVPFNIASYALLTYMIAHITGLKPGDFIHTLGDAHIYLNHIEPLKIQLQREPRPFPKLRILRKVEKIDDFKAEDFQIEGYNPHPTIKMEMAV
# [3] = molecular target: dihydrofolate reductase (DHFR) (Homo sapiens, UniProt P00374); conditions: in vitro studies; cited from earlier work
# dihydrofolate reductase (DHFR), sequence (P00374 whole entry, species assumed): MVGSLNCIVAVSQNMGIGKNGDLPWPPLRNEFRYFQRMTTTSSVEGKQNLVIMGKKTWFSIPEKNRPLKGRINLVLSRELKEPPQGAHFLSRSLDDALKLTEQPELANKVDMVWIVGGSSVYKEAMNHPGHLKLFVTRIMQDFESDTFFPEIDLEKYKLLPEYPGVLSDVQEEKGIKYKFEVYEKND
Compound,production of IL-4 from Th2 cells (murine Th2 cells),production of IFNγ from Th1 cells (murine Th1 cells),"proliferation of activated CD4+ T cells (cell division, number of daughter cells) (human CD4+ T cells)","CD27+CD38+ GCB cell plasmablast differentiation / plasmablast frequency ([1]; day 7 of culture, lometrexol added after 48 hours, three tonsil donors)",B or T cell survival (viability) ([1]; day 7 tonsillar organoids),TFH frequency ([1]; day 7 tonsillar organoids),T cell-B cell collaboration (humoral immune response) ([1]; tonsil organoid system),inhibition of thymidylate synthase (TS) [2],inhibition of dihydrofolate reductase (DHFR) [3]
Nc1nc2c(c(=O)[nH]1)C[C@@H](CCc1ccc(C(=O)N[C@@H](CCC(=O)O)C(=O)O)cc1)CN2 [lometrexol],at low doses enhances,at low doses enhances,can inhibit; also recorded: Dose-dependent inhibition,abrogated plasmablast differentiation in a dose-dependent manner; also recorded: Plasmablast frequency diminishment,without affecting,without affecting,blocks,,
Nc1nc2[nH]cc(CCc3ccc(C(=O)N[C@@H](CCC(=O)O)C(=O)O)cc3)c2c(=O)[nH]1 [pemetrexed],,,,,,,,inhibits,inhibits
